Experimental data: patent US20120035206A1, “PREPARATION AND APPLICATION OF NOVEL ANTIBACTERIAL AND ANTICANCER COMPOUNDS AND THEIR DERIVATIVES” (priority 2009, published 2012)
In brackets after ≈: the same amount, converted by molar mass.

Experiments:
Format in all cases: cell-based
C. Krusei = assay: In vitro antibacterial (antifungal) test, two-fold dilution MIC; conditions: Pichia kudriavzevii, RPMI 1640, culture 2-7 days
Protocol: (§1) In vitro antibacterial experiments of 25 compounds as anti-bacterial and anti-cancer compounds in the patent were tested using 14 kinds of bacteria. Tested bacteria: C. albicans, C. tropicalis, C. neoformans, E. floccosum, M. gypseum, A. niger, S. schenekn, C. parapsilosis, C. glabrata, C. Krusei, Trichoderma, Gibberella, Setrosphaeria turcica, Fusarium Oxysporum Vasinfectum. (Bacteria were from the Dermatology Hospital of Chinese Academy of Medical Sciences, Nanjing, China.)
(§2) The Preparation of tested Bacteria solution was following: incubated Bacteria were added to 5 ml physiological saline, and then they were mashed and placed with ultrasound. The solution was fully mixed, and insoluble substances were removed. The treated solution was called the original bacterium solution. In the test, the bacteria concentration in the original bacterium solution was adjusted to […].
(§3) Tested Methods: the tested compounds were dissolved in dimethyl sulfoxide. and the solution was diluted with sterile distilled water. And the distilled solution was added to sterilized RPMI 1640 medium. The concentration of the compounds were adjusted to 256, 128, 64, 32, 16, 8, 4, 2, 1, 0.5, 0.25, 0.125 ug*ml-1. Then the adjusted solutions were inoculated with tested bacteria, and the tested systems were placed in the constant temperature oven to culture for 2-7 days. The concentration at which there was no growing of fungi was taken as the minimum inhibitory concentration (MIC).

C. albicans = assay: as above; conditions: Candida albicans, read-out: MIC C. albicas
Protocol: as §1, §2, §3

C. glabrata = assay: as above; conditions: Nakaseomyces glabratus, RPMI 1640, culture 2-7 days
Protocol: as §1, §2, §3

C. neoformans = assay: as above; conditions: Cryptococcus neoformans, RPMI 1640, culture 2-7 days
Protocol: as §1, §2, §3

C. parapsilosis = assay: as above; conditions: Lodderomyces parapsilosis, RPMI 1640, culture 2-7 days
Protocol: as §1, §2, §3

C. tropicalis = assay: as above; conditions: Candida tropicalis, RPMI 1640, culture 2-7 days
Protocol: as §1, §2, §3

S. schenekn = assay: as above; conditions: RPMI 1640, culture 2-7 days
Protocol: as §1, §2, §3

E. floccosum = assay: as above; conditions: Epidermophyton floccosum, RPMI 1640, culture 2-7 days
Protocol: as §1, §2, §3

[1] = test system: Fusarium oxysporum vasinfectum; assay: as above; conditions: RPMI 1640, culture 2-7 days
Protocol: as §1, §2, §3

M. gypseum = assay: as above; conditions: Nannizzia gypsea, RPMI 1640, culture 2-7 days
Protocol: as §1, §2, §3

Setosphaeria turcica = assay: as above; conditions: Exserohilum turcicum, RPMI 1640, culture 2-7 days
Protocol: as §1, §2, §3

Terchoderma = assay: as above; conditions: Trichoderma, RPMI 1640, culture 2-7 days
Protocol: as §1, §2, §3

A375 = assay: In vitro anticancer MTT experiment; conditions: Homo sapiens, A-375, concentration 5 ug/ml, 48 h or 72 h, read-out: inhibition ratio A375
Protocol: (§4) In vitro anticancer experiments of 25 compounds as anti-bacterial and anti-cancer compounds in the patent were tested. In the test, 14 kinds of cancer cells were used as tested cancer cells. And the results obtained by MTT method were shown in table 2 (the inhibition ratio was obtained when the concentration was 5 ug/ml). Tested Cancer Cells: SGC7901, HTB-38HT-29, CRL-2233NU-398, CRL-1469PANC-1, B0192, HTB-131MDA-453, CRL-1435PC-3, FTC133, AS24391, HTB-95637. (Cancer cells were from Chinese Military Academy of Medical Sciences). Cells Culture: Culture solution was composed of RPMI 1640 medium, 10% (VAT) Fetal calf serum and 0.01% L-glutamine. Cultured cells were maintained at 37° C. in an incubator with 5% CO2. The cells at logarithmic growth phase were used in the experiment. MTT Experiment: Single cell suspension was obtained by digesting cells with 0.25% trypsin. The cells at logarithmic growth phase were collected and seeded in a 96-well plate at a concentration of 6000-7000 cells per well. After culturing for 12 h at 37° C. in the incubator with 5% CO2, the cells were again incubated with the tested compounds of various concentrations for 48 h or 72 h. Pure cultures and cells without drug were taken as blank reference and negative reference, and 8 Wells of each group were taken. Twenty microliter of MTT (5 mg/mL) was added to each well, and the mixed solutions were incubation for 4 h. The formazan product was dissolved by dimethyl sulfoxide (DMSO, 150 μL), and the optical density (O.D.) was read at 570 nm. The Inhibition Ratio was calculated by the following formula: Inhibition Ratio=(Anegative control−Asample)/(Anegative control−Ablank control)

AS24391 = assay: In vitro anticancer MTT experiment; conditions: concentration 5 ug/ml, 48 h or 72 h, read-out: inhibition ratio AS24391
Protocol: as §4

B01092 = assay: In vitro anticancer MTT experiment; conditions: concentration 5 ug/ml, 48 h or 72 h, read-out: inhibition ratio B01092
Protocol: as §4

CRL-1435PC-3 = assay: In vitro anticancer MTT experiment; conditions: concentration 5 ug/ml, 48 h or 72 h, read-out: inhibition ratio CRL-1435PC-3
Protocol: as §4

CRL-2233SNU-398 = assay: In vitro anticancer MTT experiment; conditions: concentration 5 ug/ml, 48 h or 72 h, read-out: inhibition ratio CRL-2233SNU-398
Protocol: as §4

FTC 133 = assay: In vitro anticancer MTT experiment; conditions: Homo sapiens, concentration 5 ug/ml, 48 h or 72 h, read-out: inhibition ratio FTC 133
Protocol: as §4

HTB-131MDA-MB-453 = assay: In vitro anticancer MTT experiment; conditions: concentration 5 ug/ml, 48 h or 72 h, read-out: inhibition ratio HTB-131MDA-MB-453
Protocol: as §4

HTB-38HT-29 = assay: In vitro anticancer MTT experiment; conditions: concentration 5 ug/ml, 48 h or 72 h, read-out: inhibition ratio HTB-38HT-29
Protocol: as §4

HTB-94 = assay: In vitro anticancer MTT experiment; conditions: concentration 5 ug/ml, 48 h or 72 h, read-out: inhibition ratio HTB-94
Protocol: as §4

HTB-95637 = assay: In vitro anticancer MTT experiment; conditions: concentration 5 ug/ml, 48 h or 72 h, read-out: inhibition ratio HTB-95637
Protocol: as §4

L1210 = assay: In vitro anticancer MTT experiment; conditions: Mus musculus, concentration 5 ug/ml, 48 h or 72 h, read-out: inhibition ratio L1210
Protocol: as §4

L428 = assay: In vitro anticancer MTT experiment; conditions: Homo sapiens, L-428, concentration 5 ug/ml, 48 h or 72 h, read-out: inhibition ratio L428
Protocol: as §4

CRL-1469PANC-1 = assay: In vitro anticancer MTT experiment; conditions: concentration 5 ug/ml, 48 h or 72 h, read-out: inhibition ratio CRL-1469PANC-1
Protocol: as §4

SGC7901 = assay: In vitro anticancer MTT experiment; conditions: Homo sapiens, SGC-7901, concentration 5 ug/ml, 48 h or 72 h, read-out: inhibition ratio SGC7901
Protocol: as §4

Compound | MIC (C. Krusei) [µg/mL] | MIC (C. albicans) [µg/mL] | MIC (C. glabrata) [µg/mL] | MIC (C. neoformans) [µg/mL] | MIC (C. parapsilosis) [µg/mL] | MIC (C. tropicalis) [µg/mL] | MIC (S. schenekn) [µg/mL] | MIC (E. floccosum) [µg/mL] | MIC [1] [µg/mL] | MIC (M. gypseum) [µg/mL] | MIC (Setosphaeria turcica) [µg/mL] | MIC (Terchoderma) [µg/mL] | inhibition at 5 µg/mL (AS24391) [%] | inhibition at 5 µg/mL (B01092) [%] | inhibition at 5 µg/mL (CRL-1435PC-3) [%] | inhibition at 5 µg/mL (HTB-38HT-29) [%] | inhibition at 5 µg/mL (HTB-94) [%] | inhibition at 5 µg/mL (HTB-95637) [%] | inhibition at 5 µg/mL (L1210) [%] | inhibition at 5 µg/mL (L428) [%] | further results
O=C1/C(=C\O)CSc2ccc(F)cc21 [Compound 3, 6-fluorine-3-(hydroxylmethene)thiochroman-4-one] | 32 (≈ 152 µM) | 32 (≈ 152 µM) | 64 (≈ 304 µM) | 16 (≈ 76.1 µM) | 32 (≈ 152 µM) | 32 (≈ 152 µM) | 64 (≈ 304 µM) |  |  |  |  |  |  |  |  |  |  |  |  |  | 
O=C1/C(=C/Cl)CSc2ccc(F)cc21 [Compound 7, (Z)-3-(chloromethylene)-6-fluorothiochroman-4-one] | 16 (≈ 70 µM) | 4 (≈ 17.5 µM) | 16 (≈ 70 µM) | 16 (≈ 70 µM) | 8 (≈ 35 µM) | 16 (≈ 70 µM) | 2 (≈ 8.75 µM) | 4 (≈ 17.5 µM) | 32 (≈ 140 µM) | 8 (≈ 35 µM) | 16 (≈ 70 µM) | 8 (≈ 35 µM) | 58.3 | 54.8 | 51.2 | 45.7 | 65.4 | 60.1 | 79.8 | 57.3 | inhibition at 5 µg/mL (A375): 56%; inhibition at 5 µg/mL (CRL-2233SNU-398): 49.9%; inhibition at 5 µg/mL (FTC 133): 52.6%; inhibition at 5 µg/mL (HTB-131MDA-MB-453): 48.6%
Cc1cc2c(cc1F)SC/C(=C\Br)C2=O [Compound 9, (Z)-3-(bromomethylene)-7-fluoro-6-methylthiochroman-4-one] | 4 (≈ 13.9 µM) | 64 (≈ 223 µM) | 64 (≈ 223 µM) | 1 (≈ 3.48 µM) | 8 (≈ 27.9 µM) | 32 (≈ 111 µM) | 32 (≈ 111 µM) | 32 (≈ 111 µM) | 64 (≈ 223 µM) | 64 (≈ 223 µM) | 32 (≈ 111 µM) | 64 (≈ 223 µM) | 57 | 39.4 | 36 | 74.6 | 65.6 | 55.8 | 89.5 | 50.1 | inhibition at 5 µg/mL (CRL-1469PANC-1): 60.1%; inhibition at 5 µg/mL (CRL-2233SNU-398): 45.6%; inhibition at 5 µg/mL (HTB-131MDA-MB-453): 56.7%; inhibition at 5 µg/mL (SGC7901): 50.4%
Cc1ccc(S/C=C2\CSc3ccc(F)cc3C2=O)cc1F [Compound 12, (Z)-6-fluoro-3-(((3-fluoro-4-methylphenyl)thio)methylene)thiochroman-4-one] | 64 (≈ 191 µM) |  |  | 8 (≈ 23.9 µM) |  |  | 64 (≈ 191 µM) |  | 16 (≈ 47.8 µM) |  |  |  | 49 | 48.4 | 56.6 | 43.2 | 47.5 | 60.5 | 90.9 | 56.8 | inhibition at 5 µg/mL (A375): 60.4%; inhibition at 5 µg/mL (CRL-1469PANC-1): 45.6%; inhibition at 5 µg/mL (FTC 133): 54.5%
O=C1/C(=C/Cl)SCc2ccccc21 [Compound 14, (Z)-3-(chloromethylene)isothiochroman-4-one] | 64 (≈ 304 µM) | 4 (≈ 19 µM) | 16 (≈ 75.9 µM) | 4 (≈ 19 µM) | 32 (≈ 152 µM) | 32 (≈ 152 µM) | 8 (≈ 38 µM) | 16 (≈ 75.9 µM) |  | 4 (≈ 19 µM) |  |  | 36.6 | 56.8 | 48 | 42.6 | 45.6 | 40.5 | 78 | 34.6 | inhibition at 5 µg/mL (A375): 45.5%; inhibition at 5 µg/mL (CRL-1469PANC-1): 40.6%; inhibition at 5 µg/mL (CRL-2233SNU-398): 58.9%; inhibition at 5 µg/mL (FTC 133): 30.4%; inhibition at 5 µg/mL (HTB-131MDA-MB-453): 56.7%; inhibition at 5 µg/mL (SGC7901): 50.6%
Cc1ccc2c(c1)C(O)/C(=C/Cl)CS2 (centres unmarked) [Compound 17, (Z)-3-(chloromethylene)-6-methylthiochroman-4-ol] | 16 (≈ 70.6 µM) | 16 (≈ 70.6 µM) | 32 (≈ 141 µM) | 16 (≈ 70.6 µM) | 16 (≈ 70.6 µM) | 4 (≈ 17.6 µM) | 32 (≈ 141 µM) | 16 (≈ 70.6 µM) |  | 4 (≈ 17.6 µM) | 16 (≈ 70.6 µM) | 32 (≈ 141 µM) |  |  |  |  |  |  |  |  | 
Cc1ccc2c(c1)C(O)/C(=C\Cl)CS2 (centres unmarked) [Compound 25, (E)-3-(chloromethylene)-6-methylthiochroman-4-ol] | 16 (≈ 70.6 µM) | 4 (≈ 17.6 µM) | 8 (≈ 35.3 µM) | 16 (≈ 70.6 µM) | 16 (≈ 70.6 µM) |  | 8 (≈ 35.3 µM) | 32 (≈ 141 µM) |  | 16 (≈ 70.6 µM) | 16 (≈ 70.6 µM) |  |  |  |  |  |  |  |  |  | 
O=C1/C(=C\Cl)CSc2ncccc21 [Compound 27, (E)-3-(chloromethylene)-2H-thiopyrano[2,3-b]pyridin-4(3H)-one] | 8 (≈ 37.8 µM) | 4 (≈ 18.9 µM) | 16 (≈ 75.6 µM) | 8 (≈ 37.8 µM) | 4 (≈ 18.9 µM) | 4 (≈ 18.9 µM) | 2 (≈ 9.45 µM) | 16 (≈ 75.6 µM) | 16 (≈ 75.6 µM) | 8 (≈ 37.8 µM) | 32 (≈ 151 µM) | 4 (≈ 18.9 µM) |  |  |  |  |  |  |  |  | 
